Assay results reported in US20100273772A1, “Bisaryl Alkynylamides as Negative Allosteric Modulators of Metabotropic Glutamate Receptor 5 (MGLUR5)” (Wyeth LLC, priority 2009, published 2010).

Experiments:
[1] = molecular target: T1, metabotropic glutamate receptor 5 (Rattus norvegicus, UniProt P31424); experiment: FLIPR Calcium 3 fluorescence-based functional assay of intracellular calcium, mGluR5 antagonist activity; assay type: cell-based; conditions: inhibition of glutamate (EC90, ~50 uM) stimulated calcium levels, mGluR5 HEK-293 cells; read-out: mGluR5 FLIPR MP Antagonist DR IC50
T1 construct: expressed in transfected cells; host or cells: HEK-293
Excerpt: (§1) where [L]=concentration of free radioligand and Kd=dissociation constant of radioligand for the receptor. TITLE: Identification of metabotropic glutamate receptor 5 antagonists using a stable, sensitive fluorescence-based screening system PURPOSE: The aim of the research presented here was to develop a robust functional assay to measure changes in intracellular calcium, with the goal of identifying potent mGluR5 antagonists.
The FLIPR Calcium 3 Assay Kit is designed to work with many cell types, both adherent and non-adherent. Optimal cell conditions for the FLIPR Calcium 3 Assay Kit require the creation of a confluent cell monolayer before placing the plates in FLIPR or FlexStation. In general, we start with 50,000 mGluR5 HEK-293 cells/well for a 96-well plate. For adherent cells, seeding cells overnight with a plating volume of 100 μL/well worked for 96-well plates.
Remove cell plates from the incubator. Remove the supernatant medium. Add 180 ul of Loading Buffer to each well (for 96-well plates). HBSS buffer component B) pipette 100 mL of 10× Hank's Balanced Salt Solution and 20 mL of 1M Hepes buffer
Incubate cell plates for 1 hour at 37° C. and then keep the plates at room temperature until used.
After incubation, transfer the plates directly to FLIPR and begin the calcium assay as described in the FLIPR system manual. For a signal test, a starting average count of ˜10,000 is recommended. Recommended experimental setup parameters are as follows. Faster addition speeds can lead to better mixing of compounds and lower signal variance across the plate.
Test or reference compound is added to the 96-well plate (manually). […] Relative Fluorescence Units (RFUs) are recorded over a given time period (stated above) depending on the platform system used.
For antagonists, results are expressed as % inhibition of glutamate stimulated Calcium levels. IC50 values were calculated by Prism GraphPad using a 4-parameter logistic equation. IC50 values are calculated using GraphPad by fitting to a 1 site-model.

rat mGluR5 receptor = molecular target: T2, rat mGluR5 receptor (Rattus norvegicus, UniProt P31424); experiment: [3H]-MPEP binding HEK-293 cell membranes expressing a rat mGluR5 receptor; conditions: displacement of 4 nM [3H]-MPEP, HEK-293 cell membranes expressing rat mGluR5, 60 minute at room temperature; read-out: mGluR5 Ligand Binding DR Ki
T2 construct: expressed in transfected cells; host or cells: HEK-293
Procedure: TITLE: [^3H]-MPEP binding HEK-293 cell membranes expressing a rat mGluR5 receptor. PURPOSE: To identify high affinity compounds at the rat mGluR5 receptor based on their ability to displace the mGluR5 negative allosteric modulator, MPEP.
mGluR5 expressing HEK-293 cells are scraped off the plate, transferred to centrifuge tubes, and washed twice by centrifugation (2000 rpm for 10 min., 4° C.) in buffer (50 mM Tris pH 7.5). The resulting pellets are aliquoted and placed at −80° C. On the day of assay, the cells are thawed on ice, and resuspended in buffer. The binding assay is performed in a 96 well microtiter plate in a total volume of 250 μL. Non-specific binding is determined in the presence of 10 μM MPEP. Binding reaction includes a final radioligand [^3H]-MPEP concentration of 4 nM and 12-25 ug membrane protein per well. Following a 60 minute incubation at room temperature, the reaction is terminated by the addition of ice cold buffer and rapid filtration through a GF/B filter presoaked for 30 minutes in 0.5% PEI. Compounds are initially tested in a single point assay to determine percent inhibition at 10 μM. Subsequently, Ki values are determined for compounds defined to be active.
% inhibition and Ki values generated by GraphPad Prism and Excel Fit. IC50 values are calculated using GraphPad by fitting to a 1 or 2 site-binding model. Ki values are calculated from the apparent IC50 values using the Cheng-Prussof equation:
as §1

T2 sequence (P31424 21-1203): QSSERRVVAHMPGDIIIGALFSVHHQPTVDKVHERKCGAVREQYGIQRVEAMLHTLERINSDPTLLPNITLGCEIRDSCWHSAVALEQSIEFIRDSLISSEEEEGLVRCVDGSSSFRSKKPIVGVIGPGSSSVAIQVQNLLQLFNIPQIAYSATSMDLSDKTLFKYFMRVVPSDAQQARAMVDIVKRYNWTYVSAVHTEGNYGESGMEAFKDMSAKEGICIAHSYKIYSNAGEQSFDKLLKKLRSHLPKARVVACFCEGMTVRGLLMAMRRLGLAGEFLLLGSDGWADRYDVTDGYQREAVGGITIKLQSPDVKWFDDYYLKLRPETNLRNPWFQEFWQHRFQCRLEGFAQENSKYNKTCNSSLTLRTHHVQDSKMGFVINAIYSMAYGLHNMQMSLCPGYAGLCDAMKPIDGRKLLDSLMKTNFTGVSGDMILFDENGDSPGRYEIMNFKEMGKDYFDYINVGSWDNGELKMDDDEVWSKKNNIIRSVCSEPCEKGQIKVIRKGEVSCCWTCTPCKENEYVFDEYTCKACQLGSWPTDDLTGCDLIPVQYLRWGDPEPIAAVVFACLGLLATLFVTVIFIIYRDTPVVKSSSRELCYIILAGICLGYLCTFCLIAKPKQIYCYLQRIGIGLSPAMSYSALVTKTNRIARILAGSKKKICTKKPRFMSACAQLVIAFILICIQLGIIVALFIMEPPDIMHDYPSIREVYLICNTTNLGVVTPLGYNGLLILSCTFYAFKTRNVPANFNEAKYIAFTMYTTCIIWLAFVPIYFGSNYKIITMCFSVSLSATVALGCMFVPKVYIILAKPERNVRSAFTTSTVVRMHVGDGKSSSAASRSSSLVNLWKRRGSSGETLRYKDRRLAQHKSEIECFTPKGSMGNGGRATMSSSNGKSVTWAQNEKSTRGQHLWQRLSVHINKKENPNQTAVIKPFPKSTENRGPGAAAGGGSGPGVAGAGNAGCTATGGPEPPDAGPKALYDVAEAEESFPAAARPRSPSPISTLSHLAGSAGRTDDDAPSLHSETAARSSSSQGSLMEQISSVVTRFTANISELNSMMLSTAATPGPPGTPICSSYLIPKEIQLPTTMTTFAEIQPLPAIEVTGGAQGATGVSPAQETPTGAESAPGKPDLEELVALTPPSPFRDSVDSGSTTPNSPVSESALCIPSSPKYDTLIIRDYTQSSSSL
T1 sequence (P31424 21-1203): as above

Structure (SMILES) | IC50 [1] | Ki (rat mGluR5 receptor)
COc1ccc(C(=O)N2Cc3cccnc3C2)cc1C#Cc1ccccn1 [Example 54, 6-{[4-methoxy-3-(pyridin-2-ylethynyl)phenyl]carbonyl}-6,7-dihydro-5H-pyrrolo[3,4-b]pyridine] | 8 nM | 26 nM
COc1ccc(C(=O)N2CCOc3ccccc3C2)cc1C#Cc1ccccn1 [Example 55, 4-{[4-methoxy-3-(pyridin-2-ylethynyl)phenyl]carbonyl}-2,3,4,5-tetrahydro-1,4-benzoxazepine] | 12 nM | 29 nM
COc1ccc(C(=O)N2CCc3ccccc3CC2)cc1C#Cc1ccccn1 [Example 57, 3-{[4-methoxy-3-(pyridin-2-ylethynyl)phenyl]carbonyl}-2,3,4,5-tetrahydro-1H-3-benzazepine] | 17 nM | 15 nM
COc1ccc(C(=O)N2CCc3[nH]cnc3C2)cc1C#Cc1ccccn1 [Example 58, 5-{[4-methoxy-3-(pyridin-2-ylethynyl)phenyl]carbonyl}-4,5,6,7-tetrahydro-1H-imidazo[4,5-c]pyridine] | 18 nM | 57 nM
COc1ccc(C(=O)N2CCCc3ccccc3C2)cc1C#Cc1ccccn1 [Example 59, 2-{[4-methoxy-3-(pyridin-2-ylethynyl)phenyl]carbonyl}-2,3,4,5-tetrahydro-1H-2-benzazepine] | 29 nM | 42 nM
O=C(c1ccc(Cl)c(C#Cc2ccccn2)c1)N1Cc2ccccc2C1 [Example 60, 2-[4-Chloro-3-(pyridin-2-ylethynyl)benzoyl]isoindoline] | 6 nM | 1 nM
O=C(c1ccc(Cl)c(C#Cc2ccccn2)c1)N1CCc2ccccc2C1 [Example 61, 2-[4-Chloro-3-(pyridin-2-ylethynyl)benzoyl]-1,2,3,4-tetrahydroisoquinoline] | 13 nM | 0.4 nM
O=C(c1ccc(Cl)c(C#Cc2ccccn2)c1)N1CCc2cccnc2C1 [Example 62, 7-{[4-chloro-3-(pyridin-2-ylethynyl)phenyl]carbonyl}-5,6,7,8-tetrahydro-1,7-naphthyridine] | 9 nM | 5 nM
O=C(c1ccc(Cl)c(C#Cc2ccccn2)c1)N1CCc2c(F)ccc(F)c2C1 [Example 63, 2-{[4-chloro-3-(pyridin-2-ylethynyl)phenyl]carbonyl}-5,8-difluoro-1,2,3,4-tetrahydroisoquinoline] | 14 nM | 0.2 nM
O=C(c1ccc(Cl)c(C#Cc2ccccn2)c1)N1CCc2c(F)cccc2C1 [Example 64, 2-{[4-chloro-3-(pyridin-2-ylethynyl)phenyl]carbonyl}-5-fluoro-1,2,3,4-tetrahydroisoquinoline] | 16 nM | 0.4 nM
O=C(c1ccc(Cl)c(C#Cc2ccccn2)c1)N1Cc2cccnc2C1 [Example 65, 6-{[4-chloro-3-(pyridin-2-ylethynyl)phenyl]carbonyl}-6,7-dihydro-5H-pyrrolo[3,4-b]pyridine] | 18 nM | 3 nM
O=C(c1ccc(Cl)c(C#Cc2ccccn2)c1)N1CCc2[nH]ncc2C1 [Example 66, 5-{[4-chloro-3-(pyridin-2-ylethynyl)phenyl]carbonyl}-4,5,6,7-tetrahydro-1H-pyrazolo[4,3-c]pyridine] | 11 nM | 4 nM
O=C(c1ccc(Cl)c(C#Cc2ccccn2)c1)N1CCc2[nH]cnc2C1 [Example 67, 5-{[4-chloro-3-(pyridin-2-ylethynyl)phenyl]carbonyl}-4,5,6,7-tetrahydro-1H-imidazo[4,5-c]pyridine] | 27 nM | 16 nM
O=C(c1ccc(Cl)c(C#Cc2ccccn2)c1)N1CCc2ncccc2C1 [Example 68, 6-{[4-chloro-3-(pyridin-2-ylethynyl)phenyl]carbonyl}-5,6,7,8-tetrahydro-1,6-naphthyridine] | 26 nM | 4 nM
O=C(c1ccc(Cl)c(C#Cc2ccccn2)c1)N1CCc2c(Cl)cccc2C1 [Example 69, 5-chloro-2-{[4-chloro-3-(pyridin-2-ylethynyl)phenyl]carbonyl}-1,2,3,4-tetrahydroisoquinoline] | 134 nM | 0.1 nM
O=C(c1ccc(Cl)c(C#Cc2ccccn2)c1)N1CCc2ccc(F)cc2C1 [Example 70, 2-{[4-chloro-3-(pyridin-2-ylethynyl)phenyl]carbonyl}-7-fluoro-1,2,3,4-tetrahydroisoquinoline] | 37 nM | 0.4 nM
O=C(c1ccc(F)c(C#Cc2ccccn2)c1)N1CCc2ccccc2C1 [Example 71, 2-[4-Fluoro-3-(pyridin-2-ylethynyl)benzoyl]-1,2,3,4-tetrahydroisoquinoline] | 67 nM | 5 nM
O=C(c1ccc(F)c(C#Cc2ccccn2)c1)N1CCc2ccc(Cl)cc2C1 [Example 72, 7-chloro-2-[4-fluoro-3-(pyridin-2-ylethynyl)benzoyl]-1,2,3,4-tetrahydroisoquinoline] | 29 nM | 2 nM
O=C(c1ccc(F)c(C#Cc2ccccn2)c1)N1CCc2c(Cl)cccc2C1 [Example 73, 5-chloro-2-[4-fluoro-3-(pyridin-2-ylethynyl)benzoyl]-1,2,3,4-tetrahydroisoquinoline] | 40 nM | 1 nM
O=C(c1ccc(F)c(C#Cc2ccccn2)c1)N1Cc2ccccc2C1 [Example 74, 2-[4-fluoro-3-(pyridin-2-ylethynyl)benzoyl]isoindoline] | 62 nM | 11 nM
CCOc1ccc(C(=O)N2CCc3ccccc3C2)cc1C#Cc1ccccn1 [Example 75, 2-[4-Ethoxy-3-(pyridin-2-ylethynyl)benzoyl]-1,2,3,4-tetrahydroisoquinoline] | 11 nM | 3 nM
CCOc1ccc(C(=O)N2CCc3ccc(Cl)cc3C2)cc1C#Cc1ccccn1 [Example 76, 7-chloro-2-[4-ethoxy-3-(pyridin-2-ylethynyl)benzoyl]-1,2,3,4-tetrahydroisoquinoline] | 42 nM | 1 nM
CCOc1ccc(C(=O)N2CCc3c(Cl)cccc3C2)cc1C#Cc1ccccn1 [Example 77, 5-chloro-2-[4-ethoxy-3-(pyridin-2-ylethynyl)benzoyl]-1,2,3,4-tetrahydroisoquinoline] | 41 nM | 1 nM
CCOc1ccc(C(=O)N2Cc3ccccc3C2)cc1C#Cc1ccccn1 [Example 78, 2-[4-ethoxy-3-(pyridin-2-ylethynyl)benzoyl]isoindoline] | 12 nM | 5 nM
O=C(c1ccc(OCC2CC2)c(C#Cc2ccccn2)c1)N1CCc2ccccc2C1 [Example 79, 2-{[4-(Cyclopropylmethoxy)-3-(pyridin-2-ylethynyl)phenyl]carbonyl}-1,2,3,4-tetrahydroisoquinoline] | 34 nM | 23 nM
Cc1ccc(C(=O)N2Cc3ccccc3C2)cc1C#Cc1ccccn1 [Example 81, 2-[4-Methyl-3-(pyridin-2-ylethynyl)benzoyl]isoindoline] | 26 nM | 1 nM
Cc1ccc(C(=O)N2CCc3ccccc3C2)cc1C#Cc1ccccn1 [Example 82, 2-[4-Methyl-3-(pyridin-2-ylethynyl)benzoyl]-1,2,3,4-tetrahydroisoquinoline] | 27 nM | 1 nM
Cc1ccc(C(=O)N2CCc3ccc(Cl)cc3C2)cc1C#Cc1ccccn1 [Example 83, 7-chloro-2-[4-methyl-3-(pyridin-2-ylethynyl)benzoyl]-1,2,3,4-tetrahydroisoquinoline] | 30 nM | 0.3 nM
Cc1ccc(C(=O)N2CCc3c(Cl)cccc3C2)cc1C#Cc1ccccn1 [Example 84, 5-chloro-2-[4-methyl-3-(pyridin-2-ylethynyl)benzoyl]-1,2,3,4-tetrahydroisoquinoline] | 48 nM | 0.3 nM
